Here are results for 20 compounds from ChEMBL document CHEMBL3817798, “Cholecystokinin-1 receptor antagonists: 5-hydroxy-5-aryl-pyrrol-2-ones as anticancer agents” (Medchemcomm, 2016).

Data set [1] concerns the target T1, Cholecystokinin receptor type A (Rattus norvegicus, UniProt P30551).
T1 sequence (P30551 whole entry): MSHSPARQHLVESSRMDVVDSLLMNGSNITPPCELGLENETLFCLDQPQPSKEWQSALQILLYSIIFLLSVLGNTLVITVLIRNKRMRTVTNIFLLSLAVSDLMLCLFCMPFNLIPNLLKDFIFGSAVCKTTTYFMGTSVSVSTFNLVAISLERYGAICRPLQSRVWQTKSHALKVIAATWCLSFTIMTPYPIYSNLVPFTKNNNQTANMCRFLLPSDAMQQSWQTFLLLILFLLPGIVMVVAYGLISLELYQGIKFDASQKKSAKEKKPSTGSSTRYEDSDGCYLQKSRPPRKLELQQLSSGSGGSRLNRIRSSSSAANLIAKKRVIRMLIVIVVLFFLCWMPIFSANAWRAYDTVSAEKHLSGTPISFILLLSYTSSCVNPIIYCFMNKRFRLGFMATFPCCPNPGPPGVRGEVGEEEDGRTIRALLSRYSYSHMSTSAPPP
Put plainly: Displacement of [125]I-CCK-8 from CCK-A receptor in rat pancreatic membrane after 2 hrs by gamma counting. The format is cell membranes.

The nature of data set [2]: Displacement of [125]I-CCK-8 from CCK-B receptor in guinea pig cerebral cortex after 2 hrs by gamma counting. The format is tissue-based, Cavia porcellus.
The subject of another data set is AGS. Put plainly: Antiproliferative activity against human AGS cells assessed as reduction in cell viability after 3 days by MTT assay. Conditions: 72 h. The format is functional, cell-based.
The subject of data set [3] is MAC16. Kind of data set: Antiproliferative activity against mouse MAC16 cells assessed as reduction in cell viability after 3 days by MTT assay. The format is functional, cell-based. The settings on record: MAC16, 72 h.
A short description of data set [4]: Antiproliferative activity against human U373MG cells assessed as reduction in cell viability after 3 days by MTT assay. The class given is functional, cell-based, U-373MG ATCC. Conditions: U373 MG, 72 h. (Tetrazolium dyes change colour on reduction, which living cells bring about.)
Data set [5] can be described thus: Antiproliferative activity against human MiaPaCa cells assessed as reduction in cell viability after 3 days by MTT assay. The format is functional, cell-based. Conditions: MIA PaCa-2, 72 h.
Another data set has as its system MAC13. Kind of data set: Antiproliferative activity against mouse MAC13 cells assessed as reduction in cell viability after 3 days by MTT assay. The class given is functional, cell-based. The settings on record: MAC13, 72 h.
A short description of data set [6]: Antiproliferative activity against human PANC cells assessed as reduction in cell viability after 3 days by MTT assay. The format is functional, cell-based. Conditions: 72 h.
For data set [7], the target named is T2, Cholecystokinin receptor type A (Homo sapiens) (UniProt P32238).
T2 sequence (whole entry): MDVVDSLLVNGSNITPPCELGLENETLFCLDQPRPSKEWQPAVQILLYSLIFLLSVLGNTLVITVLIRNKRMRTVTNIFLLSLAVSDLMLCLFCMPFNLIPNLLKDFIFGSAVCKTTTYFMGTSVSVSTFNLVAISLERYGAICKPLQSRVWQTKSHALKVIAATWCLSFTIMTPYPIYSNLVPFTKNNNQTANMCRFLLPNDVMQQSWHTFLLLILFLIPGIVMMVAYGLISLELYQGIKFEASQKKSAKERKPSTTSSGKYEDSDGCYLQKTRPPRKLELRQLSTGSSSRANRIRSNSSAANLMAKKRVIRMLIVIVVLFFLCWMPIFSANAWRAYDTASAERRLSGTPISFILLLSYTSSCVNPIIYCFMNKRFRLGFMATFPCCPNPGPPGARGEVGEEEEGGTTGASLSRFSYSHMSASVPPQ
Kind of data set: […] activity at CCK1 receptor (unknown origin).

Another data set concerns MiaPaCa. Kind of data set: Antitumor activity against human MiaPaCa cells xenografted in po dosed NSG mouse measured thrice weekly after compound dosage. The format is functional, organism-based. In general terms: Xenograft models place foreign cells or tissue in a host animal.
The test system of data set [8] is MAC16. Kind of data set: Antitumor activity against mouse MAC16 cells xenografted in po dosed NSG mouse measured thrice weekly after compound dosage. The class given is functional, organism-based.
Data set [9] has as its system MAC16. Kind of data set: Antimetastatic activity against mouse MAC16 cells xenografted in po dosed NSG mouse assessed as reduction of cell migration to lung measured thrice weekly after compound dosage. The format is functional, organism-based.
Data set [10] can be described thus: Potency index, ratio of lorglumide IC50 to compound IC50 for human MiaPaCa cells. The format is functional.
Data set [11] in a line: Half life in rat. The class given is ADME, organism-based. Conditions: in vivo.
The nature of data set [12]: Oral bioavailability in rat. The class given is ADME, organism-based. Conditions: in vivo.
Data set [13] addresses T3, Cholecystokinin receptor type A (Rattus norvegicus) (UniProt P30551).
T3 sequence (whole entry): T1 sequence (P30551 whole entry)
Kind of data set: Antagonist activity at CCK1 receptor in rat duodenum assessed as inhibition of electrically stimulated contraction.

For data set [14], the target named is T4, Cholecystokinin receptor type A (Cavia porcellus) (UniProt Q63931).
T4 sequence (whole entry): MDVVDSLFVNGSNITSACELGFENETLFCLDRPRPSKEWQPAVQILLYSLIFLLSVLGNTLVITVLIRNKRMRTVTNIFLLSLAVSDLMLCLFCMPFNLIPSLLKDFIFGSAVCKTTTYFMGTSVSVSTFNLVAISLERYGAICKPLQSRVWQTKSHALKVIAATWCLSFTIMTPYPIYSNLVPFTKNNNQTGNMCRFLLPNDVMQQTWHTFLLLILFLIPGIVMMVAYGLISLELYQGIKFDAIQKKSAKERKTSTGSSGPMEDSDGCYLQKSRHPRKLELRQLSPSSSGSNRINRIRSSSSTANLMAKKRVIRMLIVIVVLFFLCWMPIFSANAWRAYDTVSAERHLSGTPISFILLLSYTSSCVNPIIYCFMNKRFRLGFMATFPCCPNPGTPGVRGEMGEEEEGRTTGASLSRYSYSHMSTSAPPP
Put plainly: Insurmountable antagonist activity at CCK1 receptor in guinea pig bladder assessed as inhibition of CCK8s induced contraction preincubated 10 mins followed by CCK8s addition.

Calls of active or inactive are those of the source.

In the case of `CN1C(=O)C=C(Cl)C1(O)c1ccc(Cl)cc1` (stereo not drawn), the IC50 in data set [1] was 2 µM; in [2] it was greater than 10 µM.

`O=C1C=C(Cl)C(O)(c2ccccc2)N1C1CCCCC1` (stereo not drawn): the IC50 in data set [1] and in data set [2] was greater than 10 µM throughout.

`CC(C)N1C(=O)C=C(Cl)C1(O)c1ccccc1` (stereo not drawn): the IC50 was 0.2 µM in [1] and 0.9 µM in data set [2].

As to `O=C1C=C(Cl)C(O)(c2ccc(Cl)cc2)N1C1CCCC1` (stereo not drawn), the IC50 in [2] is 10 µM.

For `Cc1cccc(NC(=O)N[C@@H]2N=C(c3ccccc3)c3ccccc3N(C)C2=O)c1` [L-365260], the IC50 is 0.675 µM in the data set with AGS; greater than 5 µM in the data set on MAC16 [3]; 0.541 µM in data set [4]; greater than 5 µM in [5]; greater than 5 µM with MAC13; greater than 1 µM in data set [6].

With `O=C1C=C(Cl)C(O)(c2ccccc2)N1c1ccccc1` (stereo not drawn), the IC50 in data set [1] and in [2] was greater than 10 µM each time.

As for `CN1C(=O)C(NC(=O)c2cc3ccccc3[nH]2)N=C(c2ccccc2)c2ccccc21` (stereo not drawn), the IC50 in the data set on AGS was greater than 5 µM; with MAC16 [3], 1 µM; in [4], greater than 5 µM; in data set [5], 1.2 µM; with MAC13 it was 1.1 µM; in [6], 0.48 µM. Besides, in data set [7], the result was Active.

`CN1C(=O)C=C(Cl)C1(O)c1ccccc1` (stereo not drawn): the IC50 was 2.5 µM in data set [1] and greater than 10 µM in data set [2].

Regarding `CC(C)N1C(=O)C=C(Cl)C1(O)c1ccc(Cl)cc1` (stereo not drawn), the IC50 in data set [1] turned out to be 0.3 µM; in [2], 3.7 µM.

Regarding `CC(C)CN1C(=O)C=C(Cl)C1(O)c1ccccc1` (stereo not drawn), the TGI result in the data set with MiaPaCa and with MAC16 [8] was “Active” each time. In addition, the IC50 is 0.262 µM in the data set on AGS; 0.096 µM in the data set with MAC16 [3]; 0.765 µM in [4]; 0.015 µM in data set [5]; 0.02 µM in [1]; 0.536 µM in the data set on MAC13. In addition, the results for the IC50 in data set [6] and in data set [2] were 0.027 µM and 1.2 µM, respectively. For the same compound, in the data set with MAC16 [9], the outcome was Active. In [10], the “Ratio IC50” value was 20.

Regarding `O=C1C=C(Cl)C(O)(c2ccccc2)N1C1CCCC1` (stereo not drawn), in [2], the half-maximal inhibitory concentration (IC50) amounted to 0.84 µM.

For `CCCCCCN1C(=O)C=C(Cl)C1(O)c1ccccc1` (stereo not drawn), the figures for the IC50 in data set [1] and in data set [2] were 4.5 µM and greater than 10 µM, respectively.

As for `O=C1C=C(Cl)C(O)(c2ccccc2)N1C1CC1` (stereo not drawn), the IC50 in [1] is 7.5 µM; in data set [2], greater than 10 µM.

In the case of `CCCCCN(CCCCC)C(=O)C(CCC(=O)O)NC(=O)c1ccc(Cl)c(Cl)c1` (stereo not drawn) [LORGLUMIDE SODIUM], the IC50 was 0.289 µM in the data set with AGS; 0.861 µM in the data set on MAC16 [3]; greater than 5 µM in [4]; 0.425 µM in data set [5]; 0.17 µM in [1]; 0.421 µM in the data set with MAC13. The half-maximal inhibitory concentration (IC50) in data set [6] is 0.316 µM; in [2], greater than 10 µM.

`CCCCCCN1C(=O)C=C(Cl)C1(O)c1ccc(Cl)cc1` (stereo not drawn): the figures for the IC50 in data set [1] and in data set [2] were 3.6 µM and greater than 10 µM, respectively.

Turning to `CC(C)CN1C(=O)C=C(Cl)C1(O)c1ccc(F)cc1` (stereo not drawn), the TGI result in the data set with MiaPaCa and in the data set with MAC16 [8] was “Active” in each case. Besides, the IC50 came out at 0.222 µM with AGS; 0.076 µM with MAC16 [3]; 0.665 µM in data set [4]; 0.011 µM in [5]; 0.012 µM in data set [1]; 0.508 µM in the data set on MAC13. In addition, the figures for the IC50 in data set [6] and in data set [2] were 0.018 µM and 0.75 µM, respectively. In data set [11], this compound gave a half-life of 3.5 h. In addition, the outcome in the data set with MAC16 [9] was Active. Besides, the bioavailability in data set [12] came to 98%.

Consider `CC(C)(C)N1C(=O)C=C(Cl)C1(O)c1ccccc1` (stereo not drawn), for which the IC50 in [1] is 0.12 µM; in [2], 0.9 µM.

As to `CC(C)CN1C(=O)C=C(Cl)C1(O)c1ccc(Cl)cc1` (stereo not drawn), the inhibition result in [13] and in data set [14] was “Dose-dependent effect” throughout. Further, the IC50 was found to be 0.242 µM in the data set on AGS; 0.086 µM in the data set on MAC16 [3]; 0.475 µM in data set [4]; 0.013 µM in data set [5]; 0.008 µM in data set [1]; 0.526 µM in the data set on MAC13. The IC50 in [6] is 0.022 µM; in data set [2], 0.4 µM.

As to `O=C1C=C(Cl)C(O)(c2ccc(Cl)cc2)N1C1CC1` (stereo not drawn), the IC50 in data set [1] was 4 µM; in [2], greater than 10 µM.

Turning to `O=C1C=C(Cl)C(O)(c2ccccc2)N1Cc1ccccc1` (stereo not drawn), the IC50 with AGS is 0.053 µM; in the data set with MAC16 [3], greater than 1 µM; in data set [4], 0.023 µM; in [5], 0.23 µM; in [1], 0.8 µM; in the data set with MAC13 it was greater than 1 µM. Further, the half-inhibitory concentration (IC50) in data set [6] amounted to 0.674 µM; in [2] it was 0.022 µM.

Broadly, the IC50 is the point on the concentration scale where inhibition reaches its midpoint. In general, half-life refers to the time needed for the level to fall by half in the phase considered. A lower half-life goes with fast loss. In general, bioavailability refers to dose-corrected exposure relative to a reference, in per cent.
